Active and inactive are the calls of the source. The calls are words filed in the database; no cut-off is given here.
How the values were obtained:
[1] = molecular target: T1, Alpha-L-iduronidase (Homo sapiens) (UniProt P35475); test: Stabilization of human recombinant alpha-L-iduronidase in human GM01391 cells assessed as reduction in heparan sulfate level at 500 uM incubated for 1 day followed by 1 day washout; type: cell-based
T1 sequence (whole entry): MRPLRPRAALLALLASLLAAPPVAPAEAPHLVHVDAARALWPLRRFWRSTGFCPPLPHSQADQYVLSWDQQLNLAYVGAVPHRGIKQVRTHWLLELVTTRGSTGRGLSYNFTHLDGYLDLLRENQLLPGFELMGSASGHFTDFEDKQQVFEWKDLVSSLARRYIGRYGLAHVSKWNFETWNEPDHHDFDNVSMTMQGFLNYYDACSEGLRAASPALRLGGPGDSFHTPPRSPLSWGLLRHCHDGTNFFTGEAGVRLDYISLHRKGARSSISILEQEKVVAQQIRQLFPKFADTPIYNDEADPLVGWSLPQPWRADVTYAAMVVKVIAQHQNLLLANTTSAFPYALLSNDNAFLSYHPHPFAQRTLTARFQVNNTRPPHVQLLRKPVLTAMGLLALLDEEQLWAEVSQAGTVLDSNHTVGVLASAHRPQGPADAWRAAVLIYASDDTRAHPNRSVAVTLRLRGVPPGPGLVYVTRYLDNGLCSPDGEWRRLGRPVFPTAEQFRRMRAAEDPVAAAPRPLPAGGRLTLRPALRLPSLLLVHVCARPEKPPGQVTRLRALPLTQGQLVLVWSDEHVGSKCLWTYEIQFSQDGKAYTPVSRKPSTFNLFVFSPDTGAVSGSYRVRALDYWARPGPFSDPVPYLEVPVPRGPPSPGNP

[2] = molecular target: T1, Alpha-L-iduronidase (Homo sapiens); test: Stabilization of human recombinant alpha-L-iduronidase in human GM01391 cells assessed as fold increase in IDUA activity at 500 uM incubated for 1 day followed by 1 day washout relative to control; type: cell-based
[3] = molecular target: T1, Alpha-L-iduronidase (Homo sapiens); test: Stabilization of human recombinant alpha-L-iduronidase in human GM01391 cells assessed as fold increase in IDUA activity at 100 uM incubated for 1 day followed by 1 day washout relative to control; type: cell-based
Alpha-L-iduronidase [4] = molecular target: T2, Alpha-L-iduronidase (Homo sapiens, UniProt P35475); test: Inhibition of human recombinant alpha-L-iduronidase using 4-methylumbelliferyl-alpha-iduronide as fluorogenic substrate
T2 sequence (P35475 whole entry): T1 sequence (whole entry)

[5] = molecular target: T1, Alpha-L-iduronidase (Homo sapiens); test: Stabilization of human recombinant alpha-L-iduronidase in human GM01391 cells assessed as fold increase in IDUA activity at 500 uM measured after 9 days relative to control; type: cell-based; conditions: time 9.0 day
[6] = molecular target: T1, Alpha-L-iduronidase (Homo sapiens); test: Stabilization of human recombinant alpha-L-iduronidase in human GM02846 cells assessed as increase in IDUA activity incubated for 1 day followed by 1 day washout; type: cell-based; conditions: dose 10-500 µM
Alpha-L-iduronidase [7] = molecular target: T2, Alpha-L-iduronidase; test: Inhibition of human recombinant alpha-L-iduronidase using 4-methylumbelliferyl-alpha-iduronide as fluorogenic substrate assessed as inhibition constant by Lineweaver-Burk plot analysis
[8] = molecular target: T1, Alpha-L-iduronidase (Homo sapiens); test: Stabilization of human recombinant alpha-L-iduronidase in human GM02846 cells assessed as reduction in heparan sulfate level at 10 to 500 uM incubated for 1 day followed by 1 day washout; type: cell-based; conditions: dose 10-500 µM
[9] = molecular target: T1, Alpha-L-iduronidase (Homo sapiens); test: Stabilization of human recombinant alpha-L-iduronidase in human GM01391 cells assessed as increase in IDUA activity at 100 uM incubated for 1 day followed by 1 day washout; type: cell-based
Alpha-L-iduronidase [10] = molecular target: T2, Alpha-L-iduronidase; test: Inhibition of alpha-L-iduronidase (unknown origin) assessed as inhibition constant
[11] = molecular target: T1, Alpha-L-iduronidase (Homo sapiens); test: Inhibition of human recombinant alpha-L-iduronidase using 4-methylumbelliferyl-alpha-L-iduronide as fluorogenic substrate at 0.1 mM relative to control
Alpha-L-iduronidase [12] = molecular target: T2, Alpha-L-iduronidase; test: Inhibition of human seminal fluid alpha-L-iduronidase using 4-methylumbelliferyl-alpha-L-idosiduronic acid as substrate incubated for 1 hr by fluorescence based assay
Alpha-L-iduronidase [13] = molecular target: T2, Alpha-L-iduronidase; test: Inhibition of human alpha-L-iduronidase using 4-methylumbelliferyl-alpha-L-iduronide as substrate assessed as inhibition constant
[14] = molecular target: T1, Alpha-L-iduronidase (Homo sapiens); test: Inhibition of human recombinant alpha-L-iduronidase using 4-methylumbelliferyl-alpha-iduronide as fluorogenic substrate at 250 uM relative to control

Row | Structure (SMILES) | IC50 (Alpha-L-iduronidase [4]) | Activity [9] | inhibition [14] | also measured
1 | O=C(O)[C@]1(F)O[C@@H](F)[C@H](O)[C@@H](O)[C@@H]1O | – | – | – | Ki (Alpha-L-iduronidase [10]): 1.2 µM
2 | O=C(/C=C/c1ccccc1)NCc1cn([C@@H]2O[C@@H](C(=O)O)[C@@H](O)[C@H](O)[C@H]2O)nn1 | – | – | – | inhibition [11]: 74%
3 | O=C(Cc1cccc(OP(=O)(O)O)c1)NCC[C@@H]1O[C@@H](C(=O)O)[C@@H](O)[C@H](O)[C@H]1O | 4 µM | – | – | fold change (FC) [3]: 1.6
4 | O=C1O[C@H]([C@@H](O)C(=O)O)[C@H](O)[C@H]1O | – | – | – | IC50 (Alpha-L-iduronidase [12]): 40 µM
5 | O=C1N[C@@H](C(=O)O)[C@@H](O)[C@H](O)[C@H]1O | – | – | – | Ki (Alpha-L-iduronidase [13]): 94 µM
6 | O=C(Cc1ccccc1OP(=O)(O)O)NCC[C@@H]1O[C@@H](C(=O)O)[C@@H](O)[C@H](O)[C@H]1O | 1 µM | inactive | – | –
7 | O=C(O)[C@H]1[C@@H](O)[C@H](O)[C@@H](O)c2nnnn21 | – | – | – | Ki (Alpha-L-iduronidase [13]): 1300 µM
8 | O=C(Cc1cccc(OP(=O)(O)O)c1)NCC[C@@H]1N[C@@H](C(=O)O)[C@@H](O)[C@H](O)[C@H]1O | – | inactive | < 10% | –
9 | NCC[C@@H]1N[C@@H](C(=O)O)[C@@H](O)[C@H](O)[C@H]1O | – | inactive | < 10% | –

More lines, main results first:

Row | IC50 (Alpha-L-iduronidase [4]) | Activity [9] | inhibition [14] | Structure (SMILES) | also measured
10 | 6.7 µM | – | – | NCC[C@@H]1O[C@@H](C(=O)O)[C@@H](O)[C@H](O)[C@H]1O | Activity [1]: Active; fold change (FC) [2]: 3; fold change (FC) [3]: 1.4; fold change (FC) [5]: > 1.6; Activity [6]: Dose-Dependent Effect; Ki (Alpha-L-iduronidase [7]): 4 µM; Activity [8]: Active
11 | 5.4 µM | Active | – | O=C(Cc1ccc(OP(=O)(O)O)cc1)NCC[C@@H]1O[C@@H](C(=O)O)[C@@H](O)[C@H](O)[C@H]1O | –
12 | – | inactive | 43% | O=C(Cc1ccccc1OP(=O)(O)O)NCC[C@@H]1N[C@@H](C(=O)O)[C@@H](O)[C@H](O)[C@H]1O | –
13 | – | inactive | < 10% | O=C(Cc1ccc(OP(=O)(O)O)cc1)NCC[C@@H]1N[C@@H](C(=O)O)[C@@H](O)[C@H](O)[C@H]1O | –

Source: ChEMBL document CHEMBL5352481, “Discovery of small-molecule protein stabilizers toward exogenous alpha-l-iduronidase to reduce the accumulated heparan sulfate in mucopolysaccharidosis type I cells” (Eur J Med Chem, 2023)
